From patent US8501807B2, “Pentaerythritol derivatives” (priority 2004, dated 2013)

Key:
hairless Guinea pigs = assay: Evaluation of the increase of moisture content in the skin (Corneometer, acetone-damaged skin barrier); type: in vivo; conditions: flank, 200 μl applied after 30 min acetone patch; for moisture content of the stratum corneum, 6 h after sample application: relative to content directly after acetone treatment = 100, 6 h; for moisture content of the stratum corneum, 12 h after sample application: relative to content directly after acetone treatment = 100, 12 h; for moisture content of the stratum corneum, 24 h after sample application: relative to content directly after acetone treatment = 100, 24 h; for moisture content of the stratum corneum, 48 h after sample application: relative to content directly after acetone treatment = 100, 48 h
Protocol: The degree of the increase of moisture content in the skin was measured for the compounds obtained in the Examples. The increase of moisture content in the skin was measured by dividing 50 hairless Guinea pigs into 10 groups, and applying the compounds obtained in the Examples to each group.
Specifically, after the skin barrier was damaged by patching acetone using Finn chamber for 30 minutes to the flank site of the experiment animals, 200 μl of each experimental substance was applied to the patched site, then the moisture content of the stratum corneum of the site was measured using Corneometer and then evaluated. Apparatus measurements were carried out directly after and 6 hours, 12 hours, 24 hours and 48 hours after removing the acetone patch. Changes of moisture content in the skin were evaluated relative to the content measured directly after the acetone treatment, which was set to be 100.

[1] = Evaluation of moisture retaining ability in dry conditions (weight change, 18° C., RH 20%); type: physicochemical; conditions: initial moisture content 60%, constant temperature and humidity chamber 18° C.
Protocol: Moisture retaining ability was evaluated and compared for the compounds obtained in the Examples.
Specifically, samples were prepared such that the moisture content of the compounds obtained in the Examples was 60%, and while the samples were kept in a constant temperature and humidity chamber (18° C., RH 20%), the weight change of the samples was observed over time, thereby enabling evaluation of the changes in moisture content.

moisture content of sample, 1 h [1] [%] | moisture content of sample, 2 h [1] [%] | moisture content of sample, 4 h [1] [%] | moisture content of sample, 6 h [1] [%] | Molecule | moisture content of the stratum corneum, 6 h after sample application (hairless Guinea pigs) | moisture content of the stratum corneum, 12 h after sample application (hairless Guinea pigs) | moisture content of the stratum corneum, 24 h after sample application (hairless Guinea pigs) | moisture content of the stratum corneum, 48 h after sample application (hairless Guinea pigs)
58 | 52 | 44 | 29 | pentaerythritol ethoxylate (15/4 EO/OH) glycolic ester ethoxylate cetyl ether (pentaerythritol ethoxylate (15/4 EO/OH) ceteth-10 carboxylate) [Example 38] | 108 | 111 | 112 | 114
57 | 55 | 50 | 43 | pentaerythritol ethoxylate (15/4 EO/OH) glycolic ester ethoxylate hexyl ether (pentaerythritol ethoxylate (15/4 EO/OH) hexeth-4 carboxylate) [Example 29] | 106 | 109 | 111 | 109
 |  |  |  | pentaerythritol ethoxylate (15/4 EO/OH) glycolic ester ethoxylate stearyl ether (pentaerythritol ethoxylate (15/4 EO/OH) steareth-10 carboxylate) [Example 42] | 106 | 110 | 109 | 111
58 | 56 | 49 | 45 | pentaerythritol ethoxylate (15/4 EO/OH) glycolic ester ethoxylate lauryl ether (pentaerythritol ethoxylate (15/4 EO/OH) laureth-6 carboxylate) [Example 34] | 105 | 110 | 116 | 114
57 | 53 | 47 | 38 | pentaerythritol ethoxylate (3/4 EO/OH) glycolic ester ethoxylate octyl ether(pentaerythritol ethoxylate (3/4 EO/OH) capreth-4 carboxylate) [Example 17] | 103 | 106 | 108 | 104
58 | 57 | 50 | 44 | pentaerythritol glycolic ester ethoxylate cetyl ether (pentaerythritol ceteth-10 carboxylate) [Example 10] | 101 | 105 | 109 | 113
56 | 52 | 48 | 43 | pentaerythritol ethoxylate (3/4 EO/OH) glycolic ester ethoxylate cetyl ether (pentaerythritol ethoxylate (3/4 EO/OH) ceteth-4 carboxylate) [Example 22] | 100 | 105 | 109 | 115
57 | 50 | 41 | 25 | OCC(O)CO [Glycerol, reference compound] | 109 | 113 | 115 | 117
58 | 55 | 49 | 41 | pentaerythritol glycolic ester ethoxylate lauryl ether (pentaerythritol laureth-4 carboxylate) [Example 5] | 98 | 99 | 103 | 105
